Assay: Compound was tested for inhibitory activity against carboxypeptidase A

SMILES: O=C(O)[C@@H](CS)Cc1ccccc1 [(S)-2-Mercaptomethyl-3-phenyl-propionic acid]
- Ki: 7.8 nM

From BindingDB's records for doi:10.1016/S0960-894X(01)80741-1 (1993)
